Laboratory results from patent publication US20070134353A1, “PHYTOESTROGENIC COMPOSITION COMPRISING AN EXTRACT OF CHINESE LICORICE ROOT, ISOLIQUIRITIN OR LIQUIRITIN” (priority 2004, published 2007).
Entries after “also recorded” stand apart in the source; their conditions may differ.

Tests used:
[1] = tested on: MCF-7 breast cancer cells; test: Inhibitory effect on MCF-7 cell line proliferation (DNA content, OD 260 nm); type: cell-based; settings: for inhibition of proliferation of MCF-7 breast cancer cell line: 100 μg/ml; for inhibition of proliferation of cancer cells including breast cancer cells: summary statement, no concentration given
Procedure: (§1) 5×10^4 cells/ml of MCF-7 cells (ATCC HTB-22) were placed in a 6-well culture plate and allowed to be attached for 24 hours. Phenol red-free D-medium supplemented with 5% fetal bovine serum (FBS) and 3 Ml/l PSN antibiotic mixture (Gibco, USA) was added thereto, followed by incubation in an incubator kept at 5% CO2, 95% air, 100% humidity, 37° C. for 24 hours. After incubation for 24 hours, the medium was removed and the cultured cells were incubated in phenol red-free D-medium supplemented with 5% DCC-FBS (dextran-coated charcoal-stripped FBS; […] During the incubation, the test media were changed once. After 72 hours, the cells were treated with 1 Ml of 0.1 N NaOH (Sigma Co.) and collected to examine DNA content with a spectrophotometer at OD 260 nm.

[2] = tested on: bisphenol-A (BPA) activity in MCF-7 cells; test: Inhibitory effect on bisphenol-A (BPA) activity in MCF-7 cells; type: cell-based; settings: summary statement, no concentration given
Procedure: as §1, with “nm. Additionally, in order to examine if the Chinese licorice root extract can suppress activity of bisphenol-A (BPA), which is an endocrine disruptor having tumor-inducing activity, in the foregoing experiment, BPA was used instead of the Chinese licorice root extract or the Chinese licorice root extract and BPA were used simultaneously. […]” for “nm.”

androgen receptor (hAR) = biological target: T1, androgen receptor (hAR) (Homo sapiens, UniProt P10275); test: Yeast assay, yeast androgen response (YAR), β-gal reporter; type: cell-based; settings: summary statement, no concentration given
T1 construct: expressed in transfected cells; host or cells: recombinant Saccharomyces cerevisiae (from Dr. Donald P. McDonnell, Duke University)
T1 sequence (P10275 1-920): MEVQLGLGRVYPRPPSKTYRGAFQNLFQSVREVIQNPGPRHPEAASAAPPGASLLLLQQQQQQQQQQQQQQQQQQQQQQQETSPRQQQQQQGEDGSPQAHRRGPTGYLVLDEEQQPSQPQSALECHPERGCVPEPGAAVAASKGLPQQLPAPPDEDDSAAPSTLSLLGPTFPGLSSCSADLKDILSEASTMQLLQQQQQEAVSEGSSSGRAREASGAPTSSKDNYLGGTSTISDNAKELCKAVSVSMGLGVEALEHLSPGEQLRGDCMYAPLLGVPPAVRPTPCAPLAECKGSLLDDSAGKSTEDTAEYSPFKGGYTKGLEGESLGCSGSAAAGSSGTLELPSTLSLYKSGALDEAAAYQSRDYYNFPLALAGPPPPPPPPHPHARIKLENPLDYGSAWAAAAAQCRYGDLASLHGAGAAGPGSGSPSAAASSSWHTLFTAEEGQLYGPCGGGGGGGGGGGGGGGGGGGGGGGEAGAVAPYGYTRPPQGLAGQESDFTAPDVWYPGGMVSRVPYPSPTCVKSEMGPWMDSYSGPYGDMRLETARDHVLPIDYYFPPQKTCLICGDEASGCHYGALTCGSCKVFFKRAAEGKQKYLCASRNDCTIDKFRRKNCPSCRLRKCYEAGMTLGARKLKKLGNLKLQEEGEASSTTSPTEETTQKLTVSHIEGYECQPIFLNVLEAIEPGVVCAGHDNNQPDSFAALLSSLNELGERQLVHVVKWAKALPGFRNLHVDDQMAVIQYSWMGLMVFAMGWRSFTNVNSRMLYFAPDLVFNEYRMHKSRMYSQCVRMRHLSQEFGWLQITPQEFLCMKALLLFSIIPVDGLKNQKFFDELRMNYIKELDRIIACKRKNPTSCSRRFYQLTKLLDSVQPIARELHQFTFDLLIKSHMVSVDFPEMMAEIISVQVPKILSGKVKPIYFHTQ

[3] = biological target: T2, human estrogen receptor (hER) (Homo sapiens, UniProt P03372); test: Yeast assay, yeast estrogen response (YER), β-gal reporter; type: cell-based; settings: for estrogenicity: summary statement, no concentration given
T2 construct: expressed in transfected cells; host or cells: Saccharomyces cerevisiae ER+LYS 8127 (from Dr. Donald P. McDonnell, Duke University)
T2 sequence (P03372 1-595): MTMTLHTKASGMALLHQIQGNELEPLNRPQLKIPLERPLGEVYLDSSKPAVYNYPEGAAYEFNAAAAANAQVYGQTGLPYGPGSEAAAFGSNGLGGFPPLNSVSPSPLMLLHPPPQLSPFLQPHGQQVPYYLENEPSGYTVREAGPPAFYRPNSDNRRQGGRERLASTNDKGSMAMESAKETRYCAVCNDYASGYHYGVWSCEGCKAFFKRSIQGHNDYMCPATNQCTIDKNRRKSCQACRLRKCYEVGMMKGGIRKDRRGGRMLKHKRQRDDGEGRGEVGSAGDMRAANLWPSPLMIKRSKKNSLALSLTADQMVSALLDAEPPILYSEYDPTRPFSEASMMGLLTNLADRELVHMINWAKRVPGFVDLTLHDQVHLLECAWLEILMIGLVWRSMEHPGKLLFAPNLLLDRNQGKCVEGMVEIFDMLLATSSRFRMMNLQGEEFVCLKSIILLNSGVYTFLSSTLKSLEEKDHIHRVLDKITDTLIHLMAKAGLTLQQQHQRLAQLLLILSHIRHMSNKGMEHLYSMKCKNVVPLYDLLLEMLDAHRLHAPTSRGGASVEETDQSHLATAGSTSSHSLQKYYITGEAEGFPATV
Procedure: Saccharomyces cerevisiae ER+[…], supplied by Dr. Donald P. […] The cultured yeasts were diluted in a medium to a proper concentration and 500 μM of CuSO4 (Sigma, USA) was added thereto. The diluted yeasts were then aliquoted into a 50 Ml tube at a proper level. […] Control group was treated with dimethyl sulfoxide (Sigma, USA). […] The experimental groups and control groups treated with the respective materials were then cultured for 18 hours in a shaking incubator (200 rpm). […] To each well, 100 μl of a Z buffer containing 2 mg/Ml o-nitrophenyl -β-D-galactopyranoside (Sigma, USA), 0.1% lauryl sulfate (Sigma, USA), 50 mM β-mercaptoethanol (BDH chemical LTD, England) and 200 U/Ml oxalyticase (Enzogenetics, USA) was added. After 20 minutes, the coloration was examined using a microplate reader at a wavelength of 420 nm. All the data were analyzed by ANOVA using the statistical program SAS and Dunnett's t-test was performed at significance level P<0.05.

[4] = tested on: uterus and vagina of immature Sprague-Dawley rats; test: Immature uterotrophic assay; type: in vivo; settings: BPA 40 mg/ml/100 g s.c. 3 days, compared to non-treated control group
Procedure: 40 immature Sprague-Dawley rats, aged 18 days, were kept in a breeding environment of a temperature of 22±3° C., a relative humidity of 50±10%, a ventilation frequency of 10 to 12 times/hr, light time of 12 hours, an illumination intensity of 150 to 200 lux while being supplied with AIN-76A diet (per 1 kg, thiamine HCI 0.6 g, riboflavin 0.6 g, pyridoxine HCI 0.7 g, […] 3.0 g, calcium pantothenate 1.6 g, folic acid 0.2 g, biotin 0.02 g, Vitamin B12 (0.1%) 1.0 g, Vitamin A palmitate (500,000 IU/g) 0.8 g, Vitamin D3 (400,000 IU/g) 0.25 g, Vitamin E acetate (500 IU/g) 10.0 g, menadion sodium bisulfite 0.08 g, fine powdery sucrose 981.15 g). Each rat was subcutaneously administered once daily with bisphenol A (40 mg/ml/100 g body weight) and the Chinese licorice root EtOH extract (10 mg or 50 mg/ml/100 g body weight) suspended in corn oil for 3 days. 24 hours after the last administration day, the animals were killed by cervical dislocation. […] In particular, the height of the luminal epithelium of the uterus lumen was measured and the luminal epithelium of the vagina was carefully observed. For statistical analysis of data with respect to body weight of test animals and the like which had been measured in the experiment, one-way ANOVA was performed to inspect significance between groups at p=0.05 level. […]

Compound | inhibition of proliferation of MCF-7 breast cancer cell line [1] | inhibitory effect on proliferation of breast cancer cells (MCF-7) ([1]; 300 μg/ml, FIG. 5) | inhibition of proliferation of cancer cells including breast cancer cells [1] | suppression of the activity of bisphenol-A [2] | androgenicity (androgen receptor (hAR)) | estrogenicity (estrogen response, ER) ([3]; 10 μg/ml and 100 μg/ml, compared with positive control 10^−9 M estradiol, FIG. 2b) | estrogenicity [3] | concentration showing the highest estrogenicity ([3]; tested at 10 μg/ml and 100 μg/ml, FIG. 2b) | effect on proliferation of MCF-7 cells ([1]; 16 μg/ml, pretest) | thickness of uterine epithelial cells ([4]; FIG. 14) | thickness of vagina epithelial cells ([4]; FIG. 15)
O=C(/C=C/c1ccc(O[C@@H]2O[C@H](CO)[C@@H](O)[C@H](O)[C@H]2O)cc1)c1ccc(O)cc1O [isoliquiritin, Isoliquiritin] | inhibited proliferation; also recorded: no significant proliferation of breast cancer cells was observed | excellent inhibitory effect | inhibit proliferation of cancer cells | suppress the activity of bisphenol-A | do not show androgenicity | higher than that of the positive control estradiol | show estrogenicity | 10 µg/mL |  |  | 
CC(C)(c1ccc(O)cc1)c1ccc(O)cc1 [BPA, bisphenol-A] |  |  |  |  |  |  |  |  | showed the highest effect on proliferation | increased | increased
Liquiritin | inhibited proliferation |  | inhibit proliferation of cancer cells | suppress the activity of bisphenol-A | do not show androgenicity |  | show estrogenicity |  |  |  | 
